pIC50: −log10 of the molar value.
Target: T1, CDK2 (Homo sapiens, UniProt P24941)
T1 construct: endogenous in cells; host or cells: OVCAR3 cells
Experiment: Phospho-RB measurement in OVCAR3 cells (HTRF phospho-RB cellular kit)
Type: cell-based
Conditions: inhibition of RB phosphorylation at S807/811 (HTRF, TR-FRET ratio 665/620), 24 h compound treatment, 0.3 to 10,000 nM
Experimental: Biological Example 1: Phospho-RB Measurement in OVCAR3 Cells
The ability of compounds of Formula (I) to inhibit CDK2 was determined in OVCAR3 cells by measuring inhibition of phosphorylation of RB protein at S780 and S807/811. Phosphorylation of RB protein at S807/811 were measured using HTRF phospho-RB cellular kits (Cat #64RBS807PEG) from Cisbio.
On Day 1, OVCAR3 cells were seeded into 96-well tissue-culture treated plates at 20,000 cells/well in 200 μL and incubated overnight at 37° C. in CO2 atmosphere. On Day 2, the cells were treated with test compounds at concentrations from 0.3 to 10,000 nM using HP D300 digital dispenser. Twenty-four hours after compound treatment, cell culture media was removed by flicking the plate and tapping the plate against clean paper towel. Immediately 30 μL 1× lysis buffer was supplemented from the kit and the plate was incubated at room temperature on shaker for 30 min. After homogenization by pipetting up and down, 8 μL cell lysate from 96-well cell culture plate was transferred to 384-well small volume white detection plate. 2 μL premixed detection solution was added and the plate was covered with sealer. To prepare the detection solution, d2 conjugated-phospho-RB antibody and Eu-cryptate conjugated phosphor-RB antibody were diluted into detection buffer following manufacturer's instruction.
Detection plates were incubated for 4 h at room temperature and read on ClarioStar (BMG Labtech) in TR-FRET mode ([…]). The TR-FRET ratio (665 nM/620 nM) was plotted against the compound concentration and normalized to DMSO controls. Half maximal inhibition concentration (IC50) values are calculated with a four-parameter logistic fit using GraphPad Prism (version 8; La Jolla, CA).

Row | Compound | pIC50
1 | O=S1(=O)CC2(CC(Nc3nccc(-c4sc(C56CC(C5)C6)nc4-c4cccc(NS(=O)(=O)N5CCc6ccc(Cl)cc65)c4F)n3)C2)C1 [Example 21, N-(3-(2-(bicyclo [1.1.1]pentan-1-yl)-5-(2-((2,2-dioxido-2-thiaspiro[3.3]heptan-6-yl)amino)-pyrimidin-4-yl)thiazol-4-yl)-2-fluorophenyl)-6-chloroindoline-1-sulfonamide] | 7.25
2 | CN(C)c1ccc2c(c1)N(S(=O)(=O)Nc1cccc(-c3nc(C45CC(C4)C5)sc3-c3ccnc(NC4CC5(C4)CS(=O)(=O)C5)n3)c1F)CC2 [Example 22, N-(3-(2-(bicyclo [1.1.1]pentan-1-yl)-5-(2-((2,2-dioxido-2-thiaspiro [3.3]heptan-6-yl)amino)-pyrimidin-4-yl)thiazol-4-yl)-2-fluorophenyl)-6-(dimethylamino)-indoline-1-sulfonamide] | 6.32
3 | COc1cccc2c1CN(S(=O)(=O)Nc1cccc(-c3nc(C45CC(C4)C5)sc3-c3ccnc(NC4CC5(C4)CS(=O)(=O)C5)n3)c1F)C2 [Example 23, N-(3-(2-(bicyclo [1.1.1]pentan-1-yl)-5-(2-((2,2-dioxido-2-thiaspiro[3.3]heptan-6-yl)amino)-pyrimidin-4-yl)thiazol-4-yl)-2-fluorophenyl)-4-methoxyisoindoline-2-sulfonamide] | 6.87
4 | O=S1(=O)CC2(CC(Nc3nccc(-c4sc(C56CC(C5)C6)nc4-c4cccc(NS(=O)(=O)N5Cc6cccc(OC(F)F)c6C5)c4F)n3)C2)C1 [Example 24, N-(3-(2~(bicyclo [1.1.1]pentan-1-yl)-5-(2-((2,2-dioxido-2-thiaspiro[3.3]heptan-6-yl)amino)-pyrimidin-4-yl)thiazol-4-yl)-2-fluorophenyl)-4-(difluoromethoxy)-isoindoline-2-sulfonamide] | 6.99
5 | O=S1(=O)CC2(CC(Nc3nccc(-c4sc(C56CC(C5)C6)nc4-c4cccc(NS(=O)(=O)N5Cc6cccc(C(F)(F)F)c6C5)c4F)n3)C2)C1 [Example 25, N-(3-(2-(bicyclo [1.1.1]pentan-1-yl)-5-(2-((2,2-dioxido-2-thiaspiro[3.3]heptan-6-yl)amino)-pyrimidin-4-yl)thiazol-4-yl)-2-fluorophenyl)-4-(trifluoromethyl)-isoindoline-2-sulfonamide] | 7.12
6 | C#Cc1ccc2c(c1)N(S(=O)(=O)Nc1cccc(-c3nc(C45CC(C4)C5)sc3-c3ccnc(NC4CC5(C4)CS(=O)(=O)C5)n3)c1F)CC2 [Example 26, N-(3-(2-(bicyclo [1.1.1]pentan-1-yl)-5-(2-((2,2-dioxido-2-thiaspiro[3.3]heptan-6-yl)amino)-pyrimidin-4-yl)thiazol-4-yl)-2-fluorophenyl)-6-ethynylindoline-1-sulfonamide] | 6.80
7 | O=S1(=O)CC2(CC(Nc3nccc(-c4sc(C56CC(C5)C6)nc4-c4cccc(NS(=O)(=O)N5CCc6ccc(C(F)F)cc65)c4F)n3)C2)C1 [Example 27, N-(3-(2-(bicyclo [1.1.1]pentan-1-yl)-5-(2-((2,2-dioxido-2-thiaspiro[3.3]heptan-6-yl)amino)-pyrimidin-4-yl)thiazol-4-yl)-2-fluorophenyl)-6-(difluoromethyl)-indoline-1-sulfonamide] | 6.79
8 | O=S1(=O)CC2(CC(Nc3nccc(-c4sc(C56CC(C5)C6)nc4-c4cccc(NS(=O)(=O)N5Cc6cccc(C(F)F)c6C5)c4F)n3)C2)C1 [Example 28, N-(3-(2-(bicyclo [1.1.1]pentan-1-yl)-5-(2-((2,2-dioxido-2-thiaspiro[3.3]heptan-6-yl)amino)-pyrimidin-4-yl)thiazol-4-yl)-2-fluorophenyl)-4-(difluoromethyl)-isoindoline-2-sulfonamide] | 7.14
9 | O=S1(=O)CC2(CC(Nc3nccc(-c4sc(C56CC(C5)C6)nc4-c4cccc(NS(=O)(=O)N5CCc6ccc(F)cc65)c4F)n3)C2)C1 [Example 29, N-(3-(2-(bicyclo [1.1.1]pentan-1-yl)-5-(2-((2,2-dioxido-2-thiaspiro[3.3]heptan-6-yl)amino)-pyrimidin-4-yl)thiazol-4-yl)-2-fluorophenyl)-6-fluoroindoline-1-sulfonamide] | 7.15
10 | CN1CC2CCC(C1)N2c1nc(-c2cccc(NS(=O)(=O)N3Cc4cccc(OC(F)F)c4C3)c2F)c(-c2ccnc(NC3CC4(C3)CS(=O)(=O)C4)n2)s1 [Example 30, 4-(difluoromethoxy)-N-(3-(5-(2-((2,2-dioxido-2-thiaspiro [3.3]heptan-6-yl)amino)pyrimidin-4-yl)-2-(3-methyl-3,8-diazabicyclo [3.2.1]-octan-8-yl)thiazol-4-yl)-2-fluorophenyl)-isoindoline-2-sulfonamide] | 7.55
11 | COc1cccc2c1CN(S(=O)(=O)Nc1cccc(-c3nc(N4C5CCC4CN(C)C5)sc3-c3ccnc(NC4CC5(C4)CS(=O)(=O)C5)n3)c1F)C2 [Example 31, N-(3-(5-(2-((2,2-dioxido-2-thiaspiro-[3.3]-heptan-6-yl)amino)pyrimidin-4-yl)-2-(3-methyl-3,8-diazabicyclo [3.2.1]-octan-8-yl)-thiazol-4-yl)-2-fluoro-phenyl)-4-methoxy-isoindoline-2-sulfonamide] | 7.52
12 | CN1CC2CCC(C1)N2c1nc(-c2cccc(NS(=O)(=O)N3Cc4cccc(C(F)(F)F)c4C3)c2F)c(-c2ccnc(NC3CC4(C3)CS(=O)(=O)C4)n2)s1 [Example 32, N-(3-(5-(2-((2,2-dioxido-2-thiaspiro-[3.3]-heptan-6-yl)amino)pyrimidin-4-yl)-2-(3-methyl-3,8-diazabicyclo[3.2.1]-octan-8-yl)-thiazol-4-yl)-2-fluoro-phenyl)-4-(trifluoro-methyl)isoindoline-2-sulfonamide] | 7.64
13 | O=S1(=O)CC2(CC(Nc3nccc(-c4sc(N5C6CCC5CN(CC(F)(F)F)C6)nc4-c4cccc(NS(=O)(=O)N5Cc6cccc(OC(F)F)c6C5)c4F)n3)C2)C1 [Example 33, 4-(difluoromethoxy)-N-(3-(5-(2-((2,2-dioxido-2-thiaspiro [3.3]heptan-6-yl)amino)pyrimidin-4-yl)-2-(3-(2,2,2-trifluoroethyl)-3,8-diazabicyclo-[3.2.1]octan-8-yl)thiazol-4-yl)-2-fluorophenyl) isoindoline-2-sulfonamide] | 6.81
14 | O=S1(=O)CC2(CC(Nc3nccc(-c4sc(C56CC(C5)C6)nc4-c4cccc(NS(=O)(=O)N5CCc6cc(F)c(F)cc65)c4F)n3)C2)C1 [Example 34, N-(3-(2-(bicyclo [1.1.1]pentan-1-yl)-5-(2-((2,2-dioxido-2-thiaspiro[3.3]heptan-6-yl)amino)-pyrimidin-4-yl)thiazol-4-yl)-2-fluorophenyl)-5,6-difluoroindoline-1-sulfonamide] | 6.93
15 | O=S1(=O)CC2(CC(Nc3nccc(-c4sc(C56CC(C5)C6)nc4-c4cccc(NS(=O)(=O)N5CCc6cc(C(F)(F)F)ccc65)c4F)n3)C2)C1 [Example 35, N-(3-(2-(bicyclo [1.1.1]pentan-1-yl)-5-(2-((2,2-dioxido-2-thiaspiro[3.3]heptan-6-yl)amino)-pyrimidin-4-yl)thiazol-4-yl)-2-fluorophenyl)-5-(trifluoromethyl)-indoline-1-sulfonamide] | 5.80
16 | O=S1(=O)CC2(CC(Nc3nccc(-c4sc(C56CC(C5)C6)nc4-c4cccc(NS(=O)(=O)N5CCc6ccc(OC(F)(F)F)cc65)c4F)n3)C2)C1 [Example 36, N-(3-(2-(bicyclo [1.1.1]pentan-1-yl)-5-(2-((2,2-dioxido-2-thiaspiro [3.3]heptan-6-yl)amino)-pyrimidin-4-yl)thiazol-4-yl)-2-fluorophenyl)-6-(trifluoromethoxy) indoline-1-sulfonamide] | 6.71
17 | O=S1(=O)CC2(CC(Nc3nccc(-c4sc(C56CC(C5)C6)nc4-c4cccc(NS(=O)(=O)N5CCc6c(F)cc(F)cc65)c4F)n3)C2)C1 [Example 37, N-(3-(2-(bicyclo [1.1.1]pentan-1-yl)-5-(2-((2,2-dioxido-2-thiaspiro[3.3]heptan-6-yl)amino)-pyrimidin-4-yl)thiazol-4-yl)-2-fluorophenyl)-4,6-difluoroindoline-1-sulfonamide] | 7.13
18 | O=S1(=O)CC2(CC(Nc3nccc(-c4sc(N5C6CCC5CN(CC(F)(F)F)C6)nc4-c4cccc(NS(=O)(=O)N5CCc6ccccc65)c4F)n3)C2)C1 [Example 38, N-(3-(5-(2-((2,2-dioxido-2-thiaspiro-[3.3]-heptan-6-yl)amino)pyrimidin-4-yl)-2-(3-(2,2,2-trifluoroethyl)-3,8-diazabicyclo[3.2.1]-octan-8-yl)thiazol-4-yl)-2-fluorophenyl)-indoline-1-sulfonamide] | 6.58
19 | O=S1(=O)CC2(CC(Nc3nccc(-c4sc(N5C6CCC5CN(CC(F)(F)F)C6)nc4-c4cccc(NS(=O)(=O)N5CCc6ccc(C(F)(F)F)cc65)c4F)n3)C2)C1 [Example 39, N-(3-(5-(2-((2,2-dioxido-2-thiaspiro-[3.3]-heptan-6-yl)amino)pyrimidin-4-yl)-2-(3-(2,2,2-trifluoroethyl)-3,8-diazabicyclo[3.2.1]-octan-8-yl)thiazol-4-yl)-2-fluorophenyl)-6-(trifluoromethyl)-indoline-1-sulfonamide] | 6.12

From US20260274833A1 (NiKang Therapeutics, Inc., priority 2022, published 2026)
